Experimental data published in PubChem BioAssay (NCI).
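Assay format: 96-well plates, 48-hour exposure. TGI: concentration producing complete growth inhibition.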

Tests used:
Test in all cases: NCI anticancer screen, dose series, 48 h
[1] = system: KM12 colon
[2] = system: SK-OV-3 ovarian
[3] = system: MDA-MB-435
[4] = system: SK-MEL-5 melanoma
[5] = system: SNB-75 CNS
[6] = system: RPMI-8226 leukemia
[7] = system: 786-0 renal
[8] = system: RXF 393 renal
[9] = system: SW-620 colon
[10] = system: UACC-62 melanoma
[11] = system: SNB-19 CNS
[12] = system: NCI-H522 lung
[13] = system: HCC-2998 colon
[14] = system: LOX IMVI melanoma
[15] = system: SK-MEL-28 melanoma
[16] = system: HCT-15 colon
[17] = system: HOP-92 NSCLC
[18] = system: CAKI-1 renal
[19] = system: NCI-H460 lung
[20] = system: HT29 colon
[21] = system: SN12C renal
[22] = system: PC-3 prostate
[23] = system: NCI-H23 lung
[24] = system: HL-60(TB) leukemia
[25] = system: K-562 leukemia
[26] = system: NCI/ADR-RES ovarian
[27] = system: MOLT-4 leukemia
[28] = system: SR leukemia
[29] = system: EKVX NSCLC
[30] = system: UACC-257 melanoma
[31] = system: SF-295 CNS
[32] = system: OVCAR-8 ovarian
[33] = system: DU-145 prostate
[34] = system: NCI-H226 lung
[35] = system: MDA-N
[36] = system: T-47D breast
[37] = system: MDA-MB-231 breast
[38] = system: COLO 205 colon
[39] = system: MCF7 breast
[40] = system: SF-268 CNS
[41] = system: MALME-3M melanoma
[42] = system: ACHN renal
[43] = system: IGROV1 ovarian
[44] = system: OVCAR-4 ovarian
[45] = system: HOP-62 NSCLC
[46] = system: M14 melanoma
[47] = system: BT-549 breast
[48] = system: A549 NSCLC
[49] = system: UO-31 renal
[50] = system: CCRF-CEM leukemia
[51] = system: TK-10 renal
[52] = system: A498 renal
[53] = system: SK-MEL-2 melanoma
[54] = system: OVCAR-5 ovarian
[55] = system: HCT-116 colon
[56] = system: OVCAR-3 ovarian
[57] = system: SF-539 CNS
[58] = system: U251 CNS

Q: Which results are given for `CC(C)(C)C1=NC(=S)SC2=NC(=O)C3(NN21)c1ccccc1-c1ccccc13`?
A: TGI [1]: > 10 µM; TGI [2]: > 10 µM; TGI [3]: > 10 µM; TGI [4]: > 10 µM; TGI [5]: > 10 µM; TGI [6]: > 10 µM; TGI [7]: > 10 µM; TGI [8]: > 10 µM; TGI [9]: > 10 µM; TGI [10]: > 10 µM; TGI [11]: > 10 µM; TGI [12]: > 10 µM; TGI [13]: > 10 µM; TGI [14]: > 10 µM; TGI [15]: > 10 µM; TGI [16]: > 10 µM; TGI [17]: > 10 µM; TGI [18]: > 10 µM; TGI [19]: > 10 µM; TGI [20]: > 10 µM; TGI [21]: > 10 µM; TGI [22]: > 10 µM; TGI [23]: > 10 µM; TGI [24]: > 10 µM; TGI [25]: > 10 µM; TGI [26]: > 10 µM; TGI [27]: > 10 µM; TGI [28]: > 10 µM; TGI [29]: > 10 µM; TGI [30]: > 10 µM; TGI [31]: > 10 µM; TGI [32]: > 10 µM; TGI [33]: > 10 µM; TGI [34]: > 10 µM; TGI [35]: > 10 µM; TGI [36]: > 10 µM; TGI [37]: > 10 µM; TGI [38]: > 10 µM; TGI [39]: > 10 µM; TGI [40]: > 10 µM; TGI [41]: > 10 µM; TGI [42]: > 10 µM; TGI [43]: > 10 µM; TGI [44]: > 10 µM; TGI [45]: > 10 µM; TGI [46]: > 10 µM; TGI [47]: > 10 µM; TGI [48]: > 10 µM; TGI [49]: > 10 µM; TGI [50]: > 10 µM; TGI [51]: > 10 µM

Q: Which TGI [1] does the source give for `Cc1ccc(NC(=S)C#N)cc1Cl` here?
A: > 100 µM

Q: And the TGI [52]?
A: 73.7 µM

Q: And the TGI [2]?
A: > 100 µM

Q: And the TGI [3]?
A: > 100 µM

Q: What about the TGI [4] of the same compound?
A: > 100 µM

Q: What about the TGI [5] of the same compound?
A: 75 µM

Q: And the TGI [6]?
A: 56.2 µM

Q: What about the TGI [53] of the same compound?
A: > 100 µM

Q: And the TGI [54]?
A: 85.7 µM

Q: What about the TGI [55] of the same compound?
A: > 100 µM

Q: And the TGI [7]?
A: > 100 µM

Q: And the TGI [8]?
A: 97.8 µM

Q: And the TGI [9]?
A: > 100 µM

Q: What about the TGI [10] of the same compound?
A: > 100 µM

Q: What about the TGI [56] of the same compound?
A: 53.8 µM

Q: What about the TGI [57] of the same compound?
A: 70.5 µM

Q: And the TGI [13]?
A: 52.8 µM

Q: And the TGI [14]?
A: > 100 µM

Q: What about the TGI [15] of the same compound?
A: > 100 µM

Q: And the TGI [16]?
A: > 100 µM

Q: What about the TGI [17] of the same compound?
A: 62.8 µM

Q: And the TGI [58]?
A: > 100 µM

Q: And the TGI [18]?
A: > 100 µM

Q: And the TGI [20]?
A: > 100 µM

Q: What about the TGI [21] of the same compound?
A: > 100 µM

Q: What about the TGI [22] of the same compound?
A: > 100 µM

Q: What about the TGI [23] of the same compound?
A: > 100 µM

Q: What about the TGI [25] of the same compound?
A: > 100 µM

Q: And the TGI [26]?
A: > 100 µM

Q: What about the TGI [27] of the same compound?
A: > 100 µM

Q: And the TGI [28]?
A: > 100 µM

Q: And the TGI [29]?
A: > 100 µM

Q: What about the TGI [30] of the same compound?
A: > 100 µM

Q: And the TGI [31]?
A: > 100 µM

Q: And the TGI [32]?
A: > 100 µM

Q: And the TGI [33]?
A: > 100 µM

Q: What about the TGI [34] of the same compound?
A: > 100 µM

Q: And the TGI [35]?
A: > 100 µM

Q: What about the TGI [36] of the same compound?
A: > 100 µM

Q: And the TGI [37]?
A: > 100 µM

Q: What about the TGI [38] of the same compound?
A: 65.2 µM

Q: And the TGI [39]?
A: > 100 µM

Q: What about the TGI [40] of the same compound?
A: > 100 µM

Q: And the TGI [41]?
A: > 100 µM

Q: And the TGI [42]?
A: > 100 µM

Q: And the TGI [43]?
A: 48.4 µM

Q: And the TGI [45]?
A: > 100 µM

Q: And the TGI [46]?
A: > 100 µM

Q: And the TGI [47]?
A: > 100 µM

Q: And the TGI [48]?
A: > 100 µM

Q: And the TGI [50]?
A: 80.3 µM

Q: What about the TGI [51] of the same compound?
A: > 100 µM

Q: How did the TGI [1] turn out when `CC1(C)C[C@H]2[C@H](O)C(CO)=C3C(=O)[C@@H](O)[C@]3(C)[C@H]2C1` was run?
A: > 100 µM

Q: And the TGI [52]?
A: > 100 µM

Q: What about the TGI [2] of the same compound?
A: > 100 µM

Q: And the TGI [3]?
A: > 100 µM

Q: What about the TGI [4] of the same compound?
A: > 100 µM

Q: And the TGI [6]?
A: > 100 µM

Q: What about the TGI [53] of the same compound?
A: > 100 µM

Q: What about the TGI [54] of the same compound?
A: > 100 µM

Q: And the TGI [55]?
A: > 100 µM

Q: And the TGI [7]?
A: > 100 µM

Q: And the TGI [8]?
A: > 100 µM

Q: What about the TGI [9] of the same compound?
A: > 100 µM

Q: And the TGI [10]?
A: > 100 µM

Q: What about the TGI [56] of the same compound?
A: > 100 µM

Q: What about the TGI [11] of the same compound?
A: > 100 µM

Q: What about the TGI [12] of the same compound?
A: > 100 µM

Q: And the TGI [57]?
A: > 100 µM

Q: What about the TGI [13] of the same compound?
A: > 100 µM

Q: And the TGI [14]?
A: > 100 µM

Q: And the TGI [15]?
A: > 100 µM

Q: What about the TGI [16] of the same compound?
A: > 100 µM

Q: What about the TGI [17] of the same compound?
A: > 100 µM

Q: What about the TGI [58] of the same compound?
A: > 100 µM

Q: What about the TGI [18] of the same compound?
A: > 100 µM

Q: What about the TGI [20] of the same compound?
A: > 100 µM

Q: What about the TGI [21] of the same compound?
A: > 100 µM

Q: What about the TGI [22] of the same compound?
A: > 100 µM

Q: And the TGI [23]?
A: > 100 µM

Q: What about the TGI [25] of the same compound?
A: > 100 µM

Q: What about the TGI [26] of the same compound?
A: > 100 µM

Q: What about the TGI [27] of the same compound?
A: 53.3 µM

Q: What about the TGI [28] of the same compound?
A: > 100 µM

Q: What about the TGI [29] of the same compound?
A: > 100 µM

Q: And the TGI [30]?
A: > 100 µM

Q: What about the TGI [31] of the same compound?
A: > 100 µM

Q: What about the TGI [32] of the same compound?
A: > 100 µM

Q: And the TGI [33]?
A: > 100 µM

Q: What about the TGI [34] of the same compound?
A: > 100 µM

Q: And the TGI [35]?
A: > 100 µM

Q: And the TGI [36]?
A: > 100 µM

Q: And the TGI [37]?
A: > 100 µM

Q: And the TGI [38]?
A: > 100 µM

Q: And the TGI [39]?
A: > 100 µM

Q: What about the TGI [40] of the same compound?
A: > 100 µM

Q: What about the TGI [41] of the same compound?
A: > 100 µM

Q: And the TGI [42]?
A: > 100 µM

Q: And the TGI [43]?
A: > 100 µM

Q: And the TGI [44]?
A: > 100 µM

Q: What about the TGI [45] of the same compound?
A: > 100 µM

Q: And the TGI [46]?
A: > 100 µM

Q: What about the TGI [47] of the same compound?
A: > 100 µM

Q: And the TGI [48]?
A: > 100 µM

Q: And the TGI [49]?
A: > 100 µM

Q: What about the TGI [50] of the same compound?
A: 84 µM

Q: What about the TGI [51] of the same compound?
A: > 100 µM
